Assay results as given in US20260355239A1, “COMBINATION OF A T CELL THERAPY AND CONTINUOUS OR INTERMITTENT DGK INHIBITOR DOSING” (Juno Therapeutics, Inc., priority 2022, published 2026).

Columns and labels:
[1] = system: A549.CD19 tumor spheroids; experiment: Rescue treatment: cytolytic activity of chronically stimulated CAR-T cells, 3D spheroids, A549.CD19; assay type: cell-based, human; settings: day 9
anti-CD19 CAR-T cells = experiment: CAR-T cell proliferation during stimulation (Incucyte); assay type: cell-based, human; settings: 30 μg/mL plate-bound anti-idiotypic antibody, seven days
Source text: T cell compositions containing T cells expressing an exemplary anti-CD19 CAR were generated from leukapheresis samples from two healthy human adult donors by a process that included immunoaffinity-based selection of T cells by separately selecting CD4+ and CD8+ cells from the samples, resulting in two compositions enriched for CD4+ and CD8+ cells, respectively, per donor. Cells of the enriched CD4+ and CD8+ compositions were separately activated with anti-CD3/anti-CD28 beads and subjected to lentiviral transduction with a vector encoding an anti-CD19 CAR. […]
Prior to use, the cryopreserved CD4+ and CD8+ CAR-engineered cell compositions were thawed and combined at approximately a 1:1 CD4:CD8 ratio for each donor to prepare a combined CD4+ CAR+ and CD8+ CAR+ T cell composition. The effects of treatment with Compound 17 at various concentrations (0.1 nM, 1 nM, 10 nM, 100 nM, or 1000 nM) added at day 0 during stimulation of the combined CAR-T cell composition with a plate-bound CAR-specific anti-idiotypic antibody (see, e.g., WO2018/023100) or during co-culture with CD19-expressing cells was then assessed.
T cell proliferation during stimulation with 30 μg/mL of plate-bound anti-CAR anti-idiotypic antibody in the presence of Compound 17 was monitored for seven days using an Incucyte imaging system. […]

[2] = system: anti-CD19 CAR-T cells with K562.CD19, Granta-519 and Raji cells; experiment: Cytokine production of chronically stimulated, concurrently treated CAR-T cells, 2D co-culture; assay type: cell-based, human; settings: concurrent treatment during chronic stimulation; 2D re-challenge, 48 h
Protocol: To simulate conditions of chronic stimulation, approximately 20,000 anti-CD19 CAR-expressing T cells of a combined CAR-T cell composition produced as described in Example 2 from two healthy adult donors were incubated with 30 µg/mL of plate-bound CAR-specific anti-idiotypic antibody (see, e.g., WO2018/023100) at 37 °C for a period of seven days. During this seven-day period, engineered CAR T cells were concurrently treated with Compound 17(0.1-1000 nM) or a vehicle control added at day 0.
Stimulated CAR T cells were then re-challenged with CD19-expressing tumor cells or tumor spheroids in the absence of Compound 17, and cytolytic activity and cytokine production were assessed.
To assess cytolytic function, the stimulated CAR-T cell composition was co-cultured with various CD19-expressing lymphoma cells at a 2.5:1 effector:target ratio. The tumor cells were engineered to express NucLight Red (NLR) and tumor cell number was monitored by Incucyte®. […] Duplicate values for cell compositions manufactured from the two different healthy donors are shown.
Supernatant was collected after 48 hours from the above co-cultures of chronically stimulated CAR-expressing T cells and CD19-expressing tumor cells. Cytokine production was measured from the supernatant by meso scale discovery (MSD) analysis of the collected cell supernatants. […]

Raji cells = experiment: Rescue treatment: cytolytic activity of chronically stimulated CAR-T cells, 2D, Raji; assay type: cell-based, human; settings: higher concentrations, 2D co-culture
Protocol: Anti-CD19 CAR-expressing T cells, produced as described in Example 2, were chronically stimulated with plate-bound CAR-specific anti-idiotypic antibody for seven days as described in Example 3, but in the absence of Compound 17 during chronic stimulation. Instead, chronically stimulated CAR T cells were treated with Compound 17 during re-challenge with CD19-expressing tumor cells, after which cytolytic activity and cytokine production were assessed.
The chronically stimulated CAR-T cells were incubated with various CD19-expressing lymphoma cells at a 2.5:1 effector:target ratio in the presence of DGKi (0-1000 nM). The tumor cells were labeled with NucLight Red (NLR) and tumor cell number was monitored by Incucyte®.

CAR-expressing T cells = experiment: Chronic stimulation assay, concurrent treatment: tumor cell numbers, spheroid volume and cytokines during re-challenge of CAR-expressing T cells (FIGS. 5A-6B); assay type: cell-based, human
Source text: FIGS. 5A-5B and 6A-6B show cytolytic activity and cytokine production during re-challenge of CAR-expressing T cells chronically stimulated in the presence of Compound 17 (concurrent treatment).
These observations were made using a chronic stimulation assay to render T cells (e.g. CAR T cells) hypofunctional (e.g. reduced cytolysis and IL-2 secretion). Using this model, engineered T cells (e.g. CAR T cells or eTCR T cells) were examined to assess impact of DGKi, such as Compound 17, on function of the engineered T cells when present during (concurrent) or following (rescue) exposure to conditions leading to a hypofunctional, exhaustive state.

[3] = system: Nalm6 leukemia tumor cells; experiment: In vivo anti-tumor effect with CAR T cells, Nalm6-rFluc NSG mice (Example 10)
Protocol: The in vivo anti-tumor effects of a continuous Compound 17 dosing regimen in combination with anti-CD19 CAR T cells were assessed in a second CD19-expressing tumor model.

[4] = system: HPV-expressing CaSki cells; experiment: Rescue treatment: cytolytic function of chronically stimulated eTCR T cells; assay type: cell-based, human; settings: 100 nM, 2.5:1 effector:target, 10 or 20 μg/mL anti-Vbeta chronic stimulation
Source text: Primary human CD4+ and CD8+ T cells were isolated from healthy donors by immunoaffinity-based methods. The isolated CD4+ and CD8+ T cells were combined and stimulated with an anti-CD3/anti-CD28 reagent, and then were transduced with a lentiviral vector encoding an anti-human papillomavirus 16 (anti-HPV16) eTCR. The nucleotide sequences encoding the beta chain and the alpha chain of the eTCR were separated by a sequence encoding a 2A ribosome skip element. Following transduction, the cells were cultured in media containing human serum and cytokines for 9-10 days prior to further assessment.
To assess the effects of rescue treatment with Compound 17 on cytolytic function, eTCR cells were stimulated for six days using 10 μg/mL or 20 μg/mL plate-bound antibody against the TCR Vbeta chain in the absence of Compound 17.
Following chronic stimulation, the eTCR-T cells were co-cultured with HPV-expressing CaSki cells at a 2.5:1 effector:target ratio in the presence of Compound 17 at 100 nM. As a control, chronically stimulated eTCR cells were co-cultured with CaSki cells in the absence of Compound 17. The CaSki cells were transduced with NucLight Red (NLR) and tumor cell number was monitored by Incucyte®.

[5] = 0.3 mg/kg oral once daily Days 1-30 with 1×10^6 CAR T cells, vs CAR T cells or Compound 17 alone

`CC[C@H]1CN([C@@H](CC)c2ccc(C(F)(F)F)cc2)[C@H](CC)CN1c1nc(=O)n(C)c2ccc(C#N)nc12` [Compound 17, 4-((2S,5R)-2,5-diethyl-4-((S)-1-(4-(trifluoromethyl)phenyl)propyl)piperazin-1-yl)-1-methyl-2-oxo-1,2-dihydropyrido[3,2-d]pyrimidine-6-carbonitrile] was tested, and the “cytolytic activity of CAR T cells against A549.CD19 spheroids” value [1] was “improved the cytolytic activity of CAR T cells against both A549.CD19 and Granta-519 tumor spheroids”, the “T cell proliferation (% confluence)” value (anti-CD19 CAR-T cells) was “did not affect T cell proliferation” and the “production of IFNγ, IL-2 and TNFα” value [2] was “dose-dependent increase in production of all three cytokines”. The “cytolytic activity of CAR T cells against Raji cells” value (Raji cells) was “not Raji cells”, the “effect of concurrent treatment on hypofunctionality upon rechallenge with antigen” value (CAR-expressing T cells) was “reversed activity and phenotypes associated with T cell hypofunctionality and preserved more effector function” and the “CAR T cell expansion and/or persistence” value ([3]; 0.3 mg/kg oral once daily Days 1-30 following CAR T cells) was “increased CAR T cell expansion and/or persistence”. For the same compound, the survival [3, 5] was “improved survival”, the tumor burden [3, 5] was “lowered tumor burden” and the “tumor suppression (tumor control index)” value ([3]; 0.3 mg/kg with CAR T cells, vs CAR T cells alone) was “enhanced tumor suppression”. The “tumor burden vs historical CAR T cell data” value ([3]; 0.3 mg/kg with CAR T cells, vs separate previous experiments without Compound 17) was “lower tumor burden than the mice in the separate previous experiments”, the single-agent effects ([3]; 0.3 or 0.6 mg/kg oral once daily Days 1-30, without CAR T cells) was “No single-agent effects of Compound 17 were observed” and the “cytolytic function of chronically stimulated eTCR cells” value [4] was “able to improve cytolytic function of chronically stimulated eTCR cells”.
